The values below come from publication PMC10673258, “Taxifolin as a Metallo-β-Lactamase Inhibitor in Combination with Augmentin against Verona Imipenemase 2 Expressing Pseudomonas aeruginosa” (Microorganisms, 2023).

“And” between values parts separate entries of the source, which are not always exact repeats. Equal entries are not always repeated. Where two headings read alike, the source gives them in different places.

One series deals with T1, VIM-2 (Pseudomonas aeruginosa, UniProt Q9K2N0).
T1 construct: The activity of purified VIM-2 was measured spectrophotometrically; made in house
Description: VIM-2 enzyme kinetics with nitrocefin, competitive inhibition model. The series is classed as biochemical. On the procedure:
Nitrocefin was used as the substrate, as it is a chromogenic cephalosporin. The activity of purified VIM-2 was measured spectrophotometrically (Cytation 3, BioTek, Winooski, VT, USA) in a potassium phosphate buffer (PBS, pH = 7.4, prepared according to a published recipe).

Details of series [1]: method as in PMID 27864057. The conditions noted are these: read-out: Kd (Zn binding); cited from earlier work.
Series [2] in a line: Toxicity against wild type human HEK 293T cells. The series is classed as cell-based. The conditions noted are these: HEK293T cells (wild type); quercetin analogs alone; human kidney cell line HEK293T.
Series [3] deals with PAX5VIM-2 (VIM-2 expressing bioluminescent PA). Briefly: MIC assay against PAX5VIM-2 (CLSI, MHB-2). It is filed as cell-based, Pseudomonas aeruginosa. On the procedure:
MIC assays were carried out following the Clinical and Laboratory Standards Institute (CLSI) established guidelines using MHB-2 and bacterial concentrations of 5 × 10^5 CFU/mL [57, 58]. A varying concentration of quercetin derivatives or conventional antibiotics was dissolved in the media with bacteria cells. The resulting suspensions were transferred to a 96-well microliter plate at 200 μL/well (triplicate for each compound). The plate was then incubated overnight at 37 °C. The MIC was determined as the concentration at which no growth was observed.

Another series deals with PAX5-WT. Briefly: Single dose inhibition against SBL-producing PAX5-WT. It is filed as cell-based, Pseudomonas aeruginosa. The conditions noted are these: amoxicillin 25 μM; amoxicillin:taxifolin 1:1; QATC 2:1:2. On the procedure: Bacteria were diluted to 5 × 10^5 CFU/mL in MH broth (MHB). A growth control containing only bacteria and a negative control containing only MHB were added. Test wells were treated with either 25 µM meropenem, ceftazidime, amoxicillin, or doripenem, as well as 1:1 combinations of the previous antibiotics with vaborbactam. Each set was repeated in triplicate, and the final viability was determined in reference to the growth control.
Supplementary Figure S9. Single dose inhibition of taxifolin against SBL-producing PAX5-WT. Concentration of amoxicillin was 25 μM for all samples. The molar ratio of the augmentin was 2:1 (amoxicillin:clavulanate); the molar ratio of the amoxicillin:taxifolin was 1:1; the molar ratio of the QATC was 2:1:2 (amoxicillin:clavulanate:taxifolin).
Supplementary Figure S10. […]

For the next series, the system named is HEK 293T cells. Description: Toxicity against wild type human HEK 293T cells. The series is classed as cell-based. As to conditions: quercetin analogs alone; human kidney cell line HEK293T.
[4] abbreviates: inhibitor fixed at 500 μM, nitrocefin 5 to 100 μM, PBS pH 7.4, 10 min pre-incubation, read-out: VIM-2, Ki.
Where [5] appears, read: quercetin analogs in combination with augmentin (2:1 molar amoxicillin:clavulanate), PAX5VIM-2.

The Ki is the equilibrium dissociation constant of an inhibitor or competing ligand from its target. What is called Kd is the equilibrium constant for the complex coming apart. Consider `O=c1c(O)c(-c2ccc(O)c(O)c2)oc2cc(O)cc(O)c12` [1a, quercetin], for which, on VIM-2 (setting [4]), the Ki stood at 41 ± 4 µM. Also, the Kd in series [1] was approximately 100 µM.

With `O=c1cc(-c2ccc(O)c(O)c2)oc2c(C3OC(CO)C(O)C(O)C3O)c(O)cc(O)c12` (stereo not drawn) [1d], the Ki at VIM-2 (setting [4]) came out at 34 ± 4 µM.

As usually defined, the CC50 is the concentration at which the toxic effect on the cells reaches its halfway point. A word on the MIC: it is the lowest concentration found to suppress growth. Consider `O=c1cc(-c2ccc(O)c(O)c2)oc2cc(O)cc(O)c12` [11a], for which the Ki on VIM-2 (setting [4]) is 36 ± 2 µM. The compound further displayed a CC50 in series [2] of 175 µM. Besides, in series [3] (setting [5]), the MIC is 7.2 µg/mL.

On to `O=C(O)[C@H]1O[C@@H](Oc2cc(O)c3c(=O)cc(-c4ccc(O)c(O)c4)oc3c2)[C@H](O)[C@@H](O)[C@@H]1O` [11b], for which, at VIM-2 (setting [4]), the Ki is 52 ± 9 µM. Besides, it took 182 µM to reach half-maximal cytotoxicity in series [2] (CC50). Besides, the MIC in series [3] (setting [5]) was 11.6 µg/mL.

As for `CC1(C)S[C@@H]2[C@H](NC(=O)[C@H](N)c3ccc(O)cc3)C(=O)N2[C@H]1C(=O)O` [amoxicillin, reference compound], in series [3] (Pseudomonas aeruginosa, read-out: MIC of amoxicillin), the MIC is 100 µM and 36 µg/mL.

As for `O=c1c(O)c(-c2cc(O)c(O)c(O)c2)oc2cc(O)cc(O)c12` [compound 3], the Ki at VIM-2 (setting [4]) stood at 42 ± 1 µM. For the same compound, the MIC in series [3] (setting [5]) came to 9.4 µg/mL.

Turning to `O=c1c(O)c(-c2ccc(O)c(O)c2)oc2cc(O)c(O)c(O)c12` [compound 4, quercetagetin], the Ki at VIM-2 amounted to 13 ± 2 µM. Moreover, the MIC in series [3] (setting [5]) was 3.9 µg/mL.

Take `O=C1c2c(O)cc(O)cc2OC(c2ccc(O)c(O)c2)C1O` (stereo not drawn) [compound 5, taxifolin]: the Ki at VIM-2 (setting [4]) was determined as 8 ± 1 µM. The CC50 in series [2] is more than 200 µM. Also, the “benefit in the killing of SBL-only PAX5-WT” value with PAX5-WT is “unable to provide any significant benefit in the killing”. Moreover, in series [3] (as part of a triple combination with amoxicillin and clavulanate), the “concentration inhibiting VIM-2 expressing P. aeruginosa cell proliferation” value is less than 4 µg/mL. Also, in series [3] (setting [5]), the MIC is 3.1 µg/mL.

As to `COc1ccc(-c2cc(=O)c3c(O)cc(O)cc3o2)cc1O` [compound 12], the MIC in series [3] (setting [5]) was 7.5 µg/mL.

As for `COc1ccc(-c2oc3cc(OC)c(OC)c(O)c3c(=O)c2OC)cc1O` [compound 13], the CC50 in series [2] is more than 200 µM. For the same compound, the MIC in series [3] (setting [5]) is 9.4 µg/mL.

In the series on HEK 293T cells, chrysoeriol [compound 14] showed a CC50 of more than 200 µM. Besides, the MIC in series [3] (setting [5]) came out at 7.6 µg/mL.
